Measurements from patent publication US8968758B2, “Material for forming a multi-level antimicrobial surface coating and its preparation” (The Hong Kong University of Science and Technology …, priority 2008, dated 2015).

Key:
[1] = tested on: Gram positive and Gram negative bacteria; assay: Contact-killing on surface coated with composition B at various contact times; type: cell-based, B. subtilis, S. aureus, E. coli; details: 10 min contact, without encapsulation
Description: A hundred microliters of 10^7.cm^−3 bacteria cell suspension was placed in contact with the coated surface at ambient condition (23±2° C., 70% R.H.) in a sterilized biological safety cabinet (NuAire, Nu-425-400E). Three sets of runs of five samples each were carried out at the fixed contact times of 1, 5, 10 and 30 min. The samples were immersed into a primary subculture tube containing 20 ml neutralizer for 30 min to stabilize the surviving bacteria cells. The sterile neutralizer solution was freshly prepared by adding 1% (v/v) 0.1 M Na2S2O3 to 600 ml of 0.85% (w/v) normal saline (NaCl, RDH) solution containing 0.1% (v/v) (final concentration) of polyoxyethylenesorbitan monooleate (Tween 80) followed by autoclave at 121° C. for 20 min. A hundred microliters aliquots from the neutralizer were cultured on a TSA plate. The numbers of viable bacteria were counted after incubating the plates for 24 h at 37±0.1° C. The sample was drip-dried and transferred to a second subculture tube containing 20 ml of sterile nutrient broth (Nutrient broth no. 2, Oxoid) for 10 min. A hundred microliters aliquots from the nutrient broth were cultured on a TSA plate. The numbers of viable bacteria were counted after incubating the plates for 24 h at 37±0.1° C.

S. aureus = assay: Kirby-Bauer disk diffusion test; type: cell-based; details: wafer coated and dried
Description: Standard Kirby-Bauer disk diffusion test was performed using S. aureus. Sterile TSA plates were evenly inoculated with a loopful (ca. 100 μl) of S. aureus inoculum from the broth culture (ca. 10^6.cm^−3). […] A filter paper coated with 100 μl of 70% ethanol without drying was used as positive control
The Kirby-Bauer disk diffusion test was conducted, a standard antimicrobial test method using impregnated wafers to test whether particular bacteria are susceptible by comparing the area of clearing that surrounds the wafer where bacteria are not capable of growing (called a zone of inhibition).

Question: With [O][Cl+][O-] [chlorine dioxide] as the compound, how does the “antimicrobial effect (in words)” value [1] read?
Answer: Its value is “ineffective”.

Question: For ethanol [70% alcohol], which zone of inhibition (S. aureus) is on record?
Answer: Its zone of inhibition is “do not show zones of inhibition”.
